Measured values taken from PMC7309260, “Peptide Probes for Plasmodium falciparum MyoA Tail Interacting Protein (MTIP): Exploring the Druggability of the Malaria Parasite Motor Complex” (ACS Chemical Biology, 2020).
Like-named read-outs stand apart in the source and are kept apart here. Where a SMILES comes first, the peptide text is derived from it. Where no end group is shown, it is not given here. [ ]: non-standard residue; d: D form. The star is where a group is joined. 5FAM = O=C1OC2(c3ccc(O)cc3Oc3cc(O)ccc32)c2ccc(C(=O)*)cc21; Abu(3-Me-diazirin-3-yl) = CC1(CC[C@H](N)C(=O)O)N=N1

Legend:
PfMTIPΔ60 [1] = molecular target: T1, PfMTIPΔ60 (Plasmodium falciparum, UniProt Q8I4W8); test: biochemical; assay type: binding; conditions: for n (ITC stoichiometry) / ΔH (ITC) / ΔS (ITC): 303 K, n = 2
T1 construct: PfMTIPΔ60 stocks were recombinantly expressed in E. coli BL21; made in house; host or cells: E. coli BL21

PfMTIPΔ60 [2] = molecular target: T1, PfMTIPΔ60; test: biochemical; assay type: binding
P. falciparum [3] = test: microbe, parasite or virus in culture; conditions: Plasmodium falciparum, read-out: EC50, P. falciparum reinvasion control curve
[4] = system: P. falciparum (3D7 strain); conditions: for uptake of polyarginines compared by chain length: flow cytometry (Figure 2c)
[5] = system: P. falciparum late schizonts; conditions: 10 μM peptide, 3 h
P. falciparum [6] = conditions: read-out: EC50, P. falciparum reinvasion / cell viability; serial dilution of peptides in triplicate, egress in presence of peptide, flow cytometry at trophozoite stage, n = 3
[7] = 1% TX-100, densitometry, 2 µL loading
[8] = 1% TX-100, densitometry, 5 µL loading
[9] = 1% TX-100, densitometry, average of 2 µL and 5 µL loadings
[10] = densitometry, average of 2 µL and 5 µL loadings

Molecule: KNIPSLLRVQAHIRKKMV-NH2 (C-terminus assumed) [My1]
- n (ITC stoichiometry) (PfMTIPΔ60 [1]): 1.06 ± 0.01
- ΔH (ITC) (PfMTIPΔ60 [1]): -15.9 ± 0.12 kcal/mol
- ΔS (ITC) (PfMTIPΔ60 [1]): -85.9 J/K.mol

Molecule: CC[C@H](C)[C@H](NC(=O)[C@H](Cc1c[nH]cn1)NC(=O)[C@H](C)NC(=O)[C@H](CCC(N)=O)NC(=O)[C@@H](NC(=O)[C@H](CCCNC(=N)N)NC(=O)[C@H](CC(C)C)NC(=O)[C@H](CC(C)C)NC(=O)[C@H](CO)NC(=O)[C@@H]1CCCN1C(=O)[C@@H](NC(=O)[C@H](CC(N)=O)NC(=O)[C@H](CCCCN)NC(=O)CNC(=O)[C@H](CCC1(C)N=N1)NC(=O)c1ccc2c(c1)C(=O)OC21c2ccc(O)cc2Oc2cc(O)ccc21)[C@@H](C)CC)C(C)C)C(=O)N[C@@H](CCCNC(=N)N)C(=O)N[C@@H](CCCCN)C(=O)N[C@@H](CCCCN)C(=O)N[C@@H](CCSC)C(=O)N[C@H](C(N)=O)C(C)C [F/D-My1] (5FAM-[Abu(3-Me-diazirin-3-yl)]GKNIPSLLRVQAHIRKKMV-NH2)
- Kd (PfMTIPΔ60 [2]): 0.0034 µM

Molecule: C[C@H]1[C@@H](O)O[C@@H]2O[C@@]3(C)CC[C@H]4[C@H](C)CC[C@@H]1[C@@]24OO3 [dihydroartemisin, Dihydroartemisinin]
- EC50 (P. falciparum [3]): 0.01 µM

Molecule: CC[C@H](C)[C@H](NC(=O)[C@H](Cc1c[nH]cn1)NC(=O)[C@H](CCCNC(=N)N)NC(=O)[C@H](CCC(N)=O)NC(=O)[C@@H](NC(=O)[C@H](C)NC(=O)[C@H](CC(C)C)NC(=O)[C@H](CCCNC(=N)N)NC(=O)[C@H](CO)NC(=O)[C@@H]1CCCN1C(=O)[C@@H](NC(=O)[C@H](CC(N)=O)NC(=O)[C@H](CC(C)C)NC(=O)CNC(=O)c1ccc2c(c1)C(=O)OC21c2ccc(O)cc2Oc2cc(O)ccc21)[C@@H](C)CC)C(C)C)C(=O)N[C@@H](CCCNC(=N)N)C(=O)N[C@@H](CCCNC(=N)N)C(=O)N[C@@H](CCCNC(=N)N)C(=O)N[C@@H](CCSC)C(=O)N[C@H](C(N)=O)C(C)C [F-ArgMy2] (5FAM-GLNIPSRLAVQRHIRRRMV-NH2)
- Kd (PfMTIPΔ60 [2]): 4.22 µM

Molecule: FAM GRRRRRR -NH2 [F-Arg6]
- uptake of polyarginines compared by chain length ([4]; Pf3D7 early schizonts): significant improvement over F-Arg4

Molecule: FAM GRRRRRRR -NH2 [F-Arg7]
- uptake of polyarginines compared by chain length ([4]; Pf3D7 early schizonts): significantly greater than F-Arg6

Molecule: CC[C@H](C)[C@H](NC(=O)[C@H](Cc1c[nH]cn1)NC(=O)[C@H](C)NC(=O)[C@H](CCC(N)=O)NC(=O)[C@@H](NC(=O)[C@H](CCCNC(=N)N)NC(=O)[C@H](CC(C)C)NC(=O)[C@H](CC(C)C)NC(=O)[C@H](CO)NC(=O)[C@@H]1CCCN1C(=O)[C@@H](NC(=O)[C@H](CC(N)=O)NC(=O)[C@H](CCCNC(=N)N)NC(=O)CNC(=O)c1ccc2c(c1)C(=O)OC21c2ccc(O)cc2Oc2cc(O)ccc21)[C@@H](C)CC)C(C)C)C(=O)N[C@@H](CCCNC(=N)N)C(=O)N[C@@H](CCCNC(=N)N)C(=O)N[C@@H](CCCNC(=N)N)C(=O)N[C@@H](CCSC)C(=O)N[C@H](C(N)=O)C(C)C [F-ArgMy1] (5FAM-GRNIPSLLRVQAHIRRRMV-NH2)
- Kd (PfMTIPΔ60 [2]): 0.0039 µM
- fold improvement in uptake compared to F-My1 ([4]; Pf3D7 early schizonts, flow cytometry (Figure 2d)): 2 fold
- permeability, share of all parasitized cells ([4]; midstage schizonts, flow cytometry): up to 50%
- In vivo Conc, TX I (insoluble) [5, 7]: 0.06 µM
- In vivo Conc, TX S (soluble) [5, 7]: 2.94 µM
- In vivo Conc, TX I (insoluble) [5, 8]: 0.39 µM
- In vivo Conc, TX S (soluble) [5, 8]: 7.17 µM
- In vivo Conc, TX I (insoluble), Av. [5, 9]: 0.22 µM
- In vivo Conc, TX S (soluble), Av. [5, 9]: 5.06 µM
- In vivo Conc, SLO S (soluble) ([5]; densitometry, 2 µL loading): 2.03 µM
- In vivo Conc, SLO I (insoluble) ([5]; densitometry, 5 µL loading): 0.93 µM
- In vivo Conc, SLO S (soluble) ([5]; densitometry, 5 µL loading): 3.01 µM
- In vivo Conc, SLO I (insoluble), Av. [5, 10]: 0.51 µM
- In vivo Conc, SLO S (soluble), Av. [5, 10]: 2.52 µM
- In vivo Conc, SLO I (insoluble) ([5]; late schizonts, densitometry of in-gel fluorescence, 2 µL loading): 0.10 µM
- EC50 (P. falciparum [6]): ~160 µM

Molecule: CC[C@H](C)[C@H](NC(=O)[C@H](Cc1c[nH]cn1)NC(=O)[C@H](C)NC(=O)[C@H](CCC(N)=O)NC(=O)[C@@H](NC(=O)[C@H](CCCNC(=N)N)NC(=O)[C@H](CC(C)C)NC(=O)[C@H](CC(C)C)NC(=O)[C@H](CO)NC(=O)[C@@H]1CCCN1C(=O)[C@@H](NC(=O)[C@H](CC(N)=O)NC(=O)[C@H](CCCCN)NC(=O)CNC(=O)c1ccc2c(c1)C(=O)OC21c2ccc(O)cc2Oc2cc(O)ccc21)[C@@H](C)CC)C(C)C)C(=O)N[C@@H](CCCNC(=N)N)C(=O)N[C@@H](CCCCN)C(=O)N[C@@H](CCCCN)C(=O)N[C@@H](CCSC)C(=O)N[C@H](C(N)=O)C(C)C [F-My1] (5FAM-GKNIPSLLRVQAHIRKKMV-NH2)
- Kd (PfMTIPΔ60 [1]): 0.0571 ± 0.013 µM
- n (ITC stoichiometry) (PfMTIPΔ60 [1]): 0.91 ± 0.01
- ΔH (ITC) (PfMTIPΔ60 [1]): -17.6 ± 0.22 kcal/mol
- ΔS (ITC) (PfMTIPΔ60 [1]): -104 J/K.mol
- EC50 (P. falciparum [6]): ~160 µM

Molecule: FAM GRRRRRRRR -NH2 [F-Arg8]
- uptake compared with F-My1 ([4]; Pf3D7 early schizonts ca. 35 h PI, flow cytometry, unpaired t test (Figure 2b)): significantly greater permeability over F-My1
- uptake of polyarginines compared by chain length ([4]; Pf3D7 early schizonts): significantly greater than F-Arg6
